Literature values, collected in US9198881B2, “Equine nutritional supplement” (priority 2011, dated 2015).
Read-outs that look alike come from different tables or passages of the source.

Tested on: nitric oxide
Settings: humans, 8 weeks of supervised aerobic training, FIGS. 4 and 5

Glycine Propionyl L-Carnitine Hydrochloride
nitric oxide levels (1.5 grams per day): statistically significant enhancement | nitric oxide levels (4.5 grams per day): statistically significant enhancement
